Like-named read-outs stand apart in the source and are kept apart here.
Experiments:
Type in all cases: in vivo
Myzus persicae = experiment: Green peach aphid (Myzus persicae) systemic artificial diet test; conditions: 72 h, read-out: mortality in comparison with untreated controls (aphid mortality)
From the text: For evaluating control of green peach aphid (Myzus persicae) through systemic means the test unit consisted of 96-well-microtiter plates containing liquid artificial diet under an artificial membrane.
The compounds were formulated using a solution containing 75% v/v water and 25% v/v DMSO. Different concentrations of formulated compounds were pipetted into the aphid diet, using a custom built pipetter, at two replications.
After application, 5-8 adult aphids were placed on the artificial membrane inside the microtiter plate wells. The aphids were then allowed to suck on the treated aphid diet and incubated at about 23±1° C. and about 50±5% relative humidity for 3 days. Aphid mortality and fecundity was then visually assessed.

Megoura viciae = experiment: Vetch aphid (Megoura viciae) leaf disk test; conditions: foliar, 120 h, read-out: mortality in comparison with untreated controls (aphid mortality)
Protocol: For evaluating control of vetch aphid (Megoura viciae) through contact or systemic means the test unit consisted of 24-well-microtiter plates containing broad bean leaf disks.
The compounds were formulated using a solution containing 75% v/v water and 25% v/v DMSO. Different concentrations of formulated compounds were sprayed onto the leaf disks at 2.5 μl, using a custom built micro atomizer, at two replications.
After application, the leaf disks were air-dried and 5-8 adult aphids placed on the leaf disks inside the microtiter plate wells. The aphids were then allowed to suck on the treated leaf disks and incubated at about 23±1° C. and about 50±5% relative humidity for 5 days. Aphid mortality and fecundity was then visually assessed.

Dichromothrips corbetti = experiment: Orchid thrips (Dichromothrips corbetti) floral-immersion test; conditions: read-out: mortality in comparison with untreated controls
Protocol: Dichromothrips corbetti adults used for bioassay were obtained from a colony maintained continuously under laboratory conditions. For testing purposes, the test compound is diluted in a 1:1 mixture of acetone:water (vol:vol), plus 0.01% vol/vol Alkannuls® EL 620 surfactant.
Thrips potency of each compound was evaluated by using a floral-immersion technique. Plastic petri dishes were used as test arenas. All petals of individual, intact orchid flowers were dipped into treatment solution and allowed to dry. Treated flowers were placed into individual petri dishes along with about 20 adult thrips. The petri dishes were then covered with lids. All test arenas were held under continuous light and a temperature of about 28° C. for duration of the assay. After 3 days, the numbers of live thrips were counted on each flower, and along inner walls of each petri dish. The percent mortality was recorded 72 hours after treatment.

Nephotettix virescens = experiment: Rice green leafhopper (Nephotettix virescens) rice seedling spray test; conditions: read-out: mortality in comparison with untreated controls
Protocol: (§1) Rice seedlings were cleaned and washed 24 hours before spraying. The active compounds were formulated in 50:50 acetone:water (vol:vol), and 0.1% vol/vol surfactant (EL 620) was added. Potted rice seedlings were sprayed with 5 ml test solution, air dried, placed in cages and inoculated with 10 adults. Treated rice plants were kept at about 28-29° C. and relative humidity of about 50-60%. Percent mortality was recorded after 72 hours.

Heliothis virescens = experiment: Tobacco budworm (Heliothis virescens) diet microtiter plate test; conditions: 120 h, read-out: mortality in comparison with untreated controls (egg and larval mortality)
Protocol: For evaluating control of tobacco budworm (Heliothis virescens) the test unit consisted of 96-well-microtiter plates containing an insect diet and 15-25 H. virescens eggs. The compounds were formulated using a solution containing 75% v/v water and 25% v/v DMSO. Different concentrations of formulated compounds were sprayed onto the insect diet at 10 μl, using a custom built micro atomizer, at two replications.
After application, microtiter plates were incubated at about 28±1° C. and about 80±5% relative humidity for 5 days. Egg and larval mortality was then visually assessed.

Nilaparvata lugens = experiment: Rice brown plant hopper (Nilaparvata lugens) rice seedling spray test; conditions: read-out: mortality in comparison with untreated controls
Protocol: as §1, with “(vol:vol)” for “(vol:vol),”

Anthonomus grandis = experiment: Boll weevil (Anthonomus grandis) diet microtiter plate test; conditions: 120 h, read-out: mortality in comparison with untreated controls (egg and larval mortality)
Protocol: For evaluating control of boll weevil (Anthonomus grandis) the test unit consisted of 96-well-microtiter plates containing an insect diet and 5-10 A. grandis eggs.
The compounds were formulated using a solution containing 75% v/v water and 25% v/v DMSO. Different concentrations of formulated compounds were sprayed onto the insect diet at 5 μl, using a custom built micro atomizer, at two replications.
After application, microtiter plates were incubated at about 25±1° C. and about 75±5% relative humidity for 5 days. Egg and larval mortality was then visually assessed.

[1] = 2500 ppm, in aphid diet, 3 days
[2] = 2500 ppm, sprayed broad bean leaf disks, 5 days
[3] = 500 ppm, floral immersion, 72 hours after treatment
[4] = 500 ppm, sprayed rice seedlings, after 72 hours
[5] = 2500 ppm, sprayed onto insect diet, 5 days

C=CCn1c([O-])c(-c2ccccc2)c(=O)[n+]2c1CCC2c1cnc(Cl)s1 (stereo not drawn) [Compound C-17]
> 75%: mortality at 2500 ppm (Myzus persicae; [1])

Cn1c2[n+](c([O-])c(-c3ccccc3)c1=O)C(c1cnc(Cl)c(-c3ccccc3)c1)CC2 (stereo not drawn) [Compound C-23]
> 75%: mortality at 2500 ppm (Myzus persicae; [1])

C[n+]1c([O-])c(-c2ccccc2)c(=O)n2c1CCCC2c1cnc(Cl)s1 (stereo not drawn) [Compound C-13]
> 75%: mortality at 2500 ppm (Myzus persicae; [1]) | mortality at 2500 ppm (Megoura viciae; [2])

CCn1c([O-])c(-c2cccc(C(F)(F)F)c2)c(=O)[n+]2c1COC2c1ccc(Cl)nc1 (stereo not drawn) [Compound C-32]
> 75%: mortality at 2500 ppm (Myzus persicae)

CSc1ncc(C2CCCc3n2c(=O)c(-c2ccccc2)c([O-])[n+]3C)s1 (stereo not drawn) [Compound C-12]
> 75%: mortality at 2500 ppm (Myzus persicae; [1])

CN1C(=O)C(c2ccccc2)=C([O-])[N+]2=C(c3cnc(Cl)s3)CSC12 (stereo not drawn) [Compound C-38]
> 75%: mortality at 500 ppm (Dichromothrips corbetti; [3]) | mortality at 500 ppm (Nephotettix virescens; [4]) | mortality at 2500 ppm (Myzus persicae; [1]) | mortality at 2500 ppm (Heliothis virescens; [5]) | mortality at 2500 ppm (Megoura viciae; [2]) | mortality at 500 ppm (Nilaparvata lugens; [4])

CCn1c([O-])c(-c2ccc(OC)cc2)c(=O)[n+]2c1CCC2c1cnc(Cl)s1 (stereo not drawn) [Compound C-47]
> 75%: mortality at 500 ppm (Dichromothrips corbetti; [3]) | mortality at 2500 ppm (Anthonomus grandis; [5]) | mortality at 500 ppm (Nephotettix virescens; [4]) | mortality at 2500 ppm (Myzus persicae; [1]) | mortality at 2500 ppm (Megoura viciae; [2])

CCn1c([O-])c(-c2cccc(-c3ccccc3)c2)c(=O)[n+]2c1CCC2c1cnc(Cl)s1 (stereo not drawn) [Compound C-49]
> 75%: mortality at 500 ppm (Dichromothrips corbetti; [3]) | mortality at 2500 ppm (Myzus persicae; [1]) | mortality at 2500 ppm (Megoura viciae; [2])

C=CCn1c([O-])c(-c2cccc(C(F)(F)F)c2)c(=O)[n+]2c1CCC2c1cnc(Cl)s1 (stereo not drawn) [Compound C-41]
> 75%: mortality at 2500 ppm (Myzus persicae; [1])

COC1=NC(c2c[n+]3c(=O)c(-c4ccccc4)c([O-])n(Cc4ccccc4)c3s2)CC1 (stereo not drawn) [Compound C-21]
> 75%: mortality at 2500 ppm (Myzus persicae; [1])

Cn1c2[n+](c([O-])c(-c3cccc(C(F)(F)F)c3)c1=O)[C@@H](c1cnc(Cl)s1)CC2 (single isomer, unassigned) [Compound C-28]
> 75%: mortality at 500 ppm (Dichromothrips corbetti; [3]) | mortality at 500 ppm (Nephotettix virescens; [4]) | mortality at 500 ppm (Nilaparvata lugens; [4])

CCn1c([O-])c(-c2cccc(-c3ccccc3)c2)c(=O)[n+]2c1COC2c1ccc(Cl)nc1 (stereo not drawn) [Compound C-43]
> 75%: mortality at 2500 ppm (Myzus persicae; [1])

C=CCn1c([O-])c(-c2cc(Cl)cc(Cl)c2)c(=O)[n+]2c1CCC2c1cnc(Cl)s1 (stereo not drawn) [Compound C-31]
> 75%: mortality at 2500 ppm (Myzus persicae; [1]) | mortality at 2500 ppm (Megoura viciae; [2])

CCn1c([O-])c(-c2ccccc2)c(=O)[n+]2c1CCC2c1cnc(Cl)s1 (stereo not drawn) [Compound C-24]
> 75%: mortality at 500 ppm (Dichromothrips corbetti; [3]) | mortality at 500 ppm (Nephotettix virescens; [4]) | mortality at 2500 ppm (Myzus persicae; [1]) | mortality at 2500 ppm (Megoura viciae; [2]) | mortality at 500 ppm (Nilaparvata lugens; [4])

C[n+]1c([O-])c(-c2ccccc2)c(=O)n2c1CCC2c1cnc(Cl)s1 (stereo not drawn) [Compound C-6, 6-(2-chlorothiazol-5-yl)-1-methyl-4-oxo-3-phenyl-3,6,7,8-tetrahydro-2H-pyrrolo[1,2-a]pyrimidin-5-ium-2-olate]
> 75%: mortality at 500 ppm (Dichromothrips corbetti; 72 h) | mortality at 500 ppm (Nephotettix virescens; 72 h) | mortality at 2500 ppm (Myzus persicae) | mortality at 2500 ppm (Megoura viciae) | mortality at 500 ppm (Nilaparvata lugens; 72 h)

C[C@@H]1C[C@@H](c2cnc(Cl)s2)[n+]2c([O-])c(-c3ccccc3)c(=O)n(C)c21 (racemic) [Compound C-29]
> 75%: mortality at 500 ppm (Dichromothrips corbetti; [3]) | mortality at 2500 ppm (Anthonomus grandis; [5]) | mortality at 2500 ppm (Myzus persicae; [1]) | mortality at 2500 ppm (Megoura viciae; [2]) | mortality at 500 ppm (Nilaparvata lugens; [4])

Cn1c2[n+](c([O-])c(-c3ccccc3)c1=O)C(c1cnc(Cl)s1)CC2(C)C (stereo not drawn) [Compound C-40]
> 75%: mortality at 2500 ppm (Anthonomus grandis; [5]) | mortality at 2500 ppm (Myzus persicae; [1]) | mortality at 2500 ppm (Megoura viciae; [2])

Cn1c2[n+](c([O-])c(-c3cccc(-c4ncc(C(F)(F)F)cc4Cl)c3)c1=O)C(c1cnc(Cl)s1)CC2 (stereo not drawn) [Compound C-48]
> 75%: mortality at 500 ppm (Dichromothrips corbetti; [3]) | mortality at 2500 ppm (Myzus persicae; [1]) | mortality at 2500 ppm (Megoura viciae; [2])

CC[n+]1c([O-])c(-c2ccccc2)c(=O)n2c1CCC2c1ccc(Cl)nc1 (stereo not drawn) [Compound C-2]
> 75%: mortality at 500 ppm (Dichromothrips corbetti; 72 h) | mortality at 500 ppm (Nephotettix virescens; 72 h) | mortality at 2500 ppm (Myzus persicae) | mortality at 2500 ppm (Megoura viciae)

C[n+]1c([O-])c(-c2ccccc2)c(=O)n2c1CCC2c1ccc(Cl)nc1 (stereo not drawn) [Compound C-1]
> 75%: mortality at 500 ppm (Dichromothrips corbetti; 72 h) | mortality at 500 ppm (Nephotettix virescens; 72 h) | mortality at 2500 ppm (Myzus persicae) | mortality at 2500 ppm (Heliothis virescens) | mortality at 2500 ppm (Megoura viciae) | mortality at 500 ppm (Nilaparvata lugens; 72 h)

CCn1c([O-])c(-c2cccc(C(F)(F)F)c2)c(=O)[n+]2c1CCC2c1cnc(Cl)s1 (stereo not drawn) [Compound C-27]
> 75%: mortality at 500 ppm (Dichromothrips corbetti; [3]) | mortality at 2500 ppm (Myzus persicae; [1]) | mortality at 2500 ppm (Megoura viciae; [2])

Cn1c2[n+](c([O-])c(-c3cc(Cl)cc(Cl)c3)c1=O)C(c1cnc(Cl)s1)CC2 (stereo not drawn) [Compound C-50]
> 75%: mortality at 500 ppm (Dichromothrips corbetti; [3]) | mortality at 2500 ppm (Myzus persicae; [1]) | mortality at 2500 ppm (Megoura viciae; [2])

Cn1c2[n+](c([O-])c(-c3ccccc3)c1=O)C(c1cnc(Cl)s1)CO2 (stereo not drawn) [Compound C-19]
> 75%: mortality at 2500 ppm (Megoura viciae)

Cn1c2[n+](c([O-])c(-c3cccc(C(F)(F)F)c3)c1=O)C(c1cnc(Cl)s1)CC2 (stereo not drawn) [Compound C-22]
> 75%: mortality at 500 ppm (Dichromothrips corbetti; [3]) | mortality at 500 ppm (Nephotettix virescens; [4]) | mortality at 2500 ppm (Myzus persicae; [1]) | mortality at 2500 ppm (Megoura viciae; [2])

Cn1c2[n+](c([O-])c(-c3cccc(-c4ccccc4)c3)c1=O)C(c1cnc(Cl)s1)CC2 (stereo not drawn) [Compound C-45]
> 75%: mortality at 500 ppm (Dichromothrips corbetti; [3]) | mortality at 2500 ppm (Myzus persicae; [1]) | mortality at 2500 ppm (Heliothis virescens; [5]) | mortality at 2500 ppm (Megoura viciae; [2])

C[n+]1c([O-])c(-c2ccccc2)c(=O)n2c1CCCC2c1ccc(Cl)nc1 (stereo not drawn) [Compound C-8, 6-(6-chloro-3-pyridyl)-1-methyl-4-oxo-3-phenyl-6,7,8,9-tetrahydropyrido[1,2-a]pyrimidin-5-ium-2-olate]
> 75%: mortality at 500 ppm (Dichromothrips corbetti; 72 h) | mortality at 500 ppm (Nephotettix virescens; 72 h) | mortality at 2500 ppm (Myzus persicae) | mortality at 2500 ppm (Megoura viciae)

CCn1c([O-])c(-c2cccc(C(F)(F)F)c2)c(=O)[n+]2c1COC2c1cnc(Cl)s1 (stereo not drawn) [Compound C-35]
> 75%: mortality at 500 ppm (Dichromothrips corbetti; [3])

CCn1c([O-])c(-c2cc(Cl)cc(Cl)c2)c(=O)[n+]2c1COC2c1ccc(Cl)nc1 (stereo not drawn) [Compound C-44]
> 75%: mortality at 2500 ppm (Anthonomus grandis) | mortality at 2500 ppm (Myzus persicae) | mortality at 2500 ppm (Heliothis virescens) | mortality at 2500 ppm (Megoura viciae)

O=c1c(-c2ccccc2)c([O-])n(Cc2ccccc2)c2[n+]1C(c1cnc(Cl)s1)CC2 (stereo not drawn) [Compound C-34]
> 75%: mortality at 500 ppm (Dichromothrips corbetti; [3]) | mortality at 2500 ppm (Myzus persicae; [1]) | mortality at 2500 ppm (Megoura viciae; [2])

CC(C)[n+]1c([O-])c(-c2ccccc2)c(=O)n2c1CCC2c1ccc(Cl)nc1 (stereo not drawn) [Compound C-3]
> 75%: mortality at 500 ppm (Dichromothrips corbetti; 72 h) | mortality at 2500 ppm (Anthonomus grandis) | mortality at 2500 ppm (Myzus persicae) | mortality at 2500 ppm (Megoura viciae; in Vicia faba)

Reference: US11019820B2 (BASF SE, priority 2013, dated 2021)
